Source: ChEMBL document CHEMBL1153069, “Isolation, enzyme-bound structure and antibacterial activity of platencin A1 from Streptomyces platensis” (Bioorg Med Chem Lett, 2009)
Values after ≈ are worked out from the molar mass of the structure shown. Active and inactive are the calls of the source. No cut-off for these calls is given here.

What was measured:
Staphylococcus aureus [1] = assay: Antibacterial activity against Staphylococcus aureus Smith at 64 ug/mL; type: functional, organism-based
Staphylococcus aureus [2] = assay: Inhibition of FAS2 in Staphylococcus aureus assessed as inhibition of fatty acid synthesis at 167 ug/ml
Enterococcus faecalis [3] = assay: Antibacterial activity against Enterococcus faecalis CL8516 at 64 ug/mL; type: functional, organism-based
Streptococcus pneumoniae [4] = assay: Antibacterial activity against Streptococcus pneumoniae CL2883 at 64 ug/mL; type: functional, organism-based
Staphylococcus aureus [5] = assay: Antibacterial activity against Staphylococcus aureus assessed as minimum concentration required to differential zone of clearance between antisense plate compared to control; type: functional
[6] = Inhibition of FAS2 in Staphylococcus aureus assessed as inhibition of fatty acid synthesis by scintillation counting
[7] = Inhibition of Escherichia coli FabF C163F
[8] = Inhibition of FabH in Staphylococcus aureus assessed as inhibition of fatty acid synthesis
Enterococcus faecalis [9] = assay: Antibacterial activity against Enterococcus faecalis CL8516; type: functional
Streptococcus pneumoniae [10] = assay: Antibacterial activity against Streptococcus pneumoniae CL2883; type: functional
Staphylococcus aureus [11] = assay: Antibacterial activity against Staphylococcus aureus Smith; type: functional

Row | Activity (Staphylococcus aureus [2]) | IC50 [6] [µg/mL] | SMILES | Activity (Staphylococcus aureus [1]) | Activity (Enterococcus faecalis [3]) | Activity (Streptococcus pneumoniae [4]) | Activity (Staphylococcus aureus [5]) [µg/mL] | also measured
1 | inactive | – | C=C1C[C@@]23C=CC(=O)[C@@](C)(CCC(=O)OC)C2C[C@@H]1C[C@H]3O (stereo partly drawn) | inactive | inactive | inactive | – | –
2 | – | 12 (≈ 28.2 µM) | C=C1C[C@@]23C=CC(=O)[C@@](C)(CCC(=O)Nc4c(O)ccc(C(=O)O)c4O)[C@@H]2C[C@@H]1CC3 [PLATENCIN] | – | – | – | 0.2 | IC50 [7]: 113 nM
3 | inactive | – | C=C1C[C@@]23C=CC(=O)[C@@](C)(CCC(=O)Nc4c(O)ccc(C(=O)OC)c4O)C2C[C@@H]1C[C@H]3O (stereo partly drawn) | inactive | inactive | inactive | – | –
4 | – | 0.5 (≈ 1.13 µM) | CC12C[C@@]34C=CC(=O)[C@@](C)(CCC(=O)Nc5c(O)ccc(C(=O)O)c5O)C3[C@H](CC1C4)O2 (stereo partly drawn) [PLATENSIMYCIN] | – | – | – | – | –
5 | – | 7.12 (≈ 16.1 µM) | C=C1C[C@@]23C=CC(=O)[C@@](C)(CCC(=O)Nc4c(O)ccc(C(=O)O)c4O)C2C[C@@H]1C[C@H]3O (stereo partly drawn) | – | – | – | 20 | IC50 [8]: 15 µg/mL (≈ 34 µM); MIC (Enterococcus faecalis [9]): 8 µg/mL (≈ 18.1 µM); MIC (Streptococcus pneumoniae [10]): > 64 µg/mL; MIC (Staphylococcus aureus [11]): 32 µg/mL (≈ 72.5 µM)
